Reference: patent US20250034136A1 (Nimbus Wadjet, Inc., priority 2023, published 2025)
Read-outs that look alike come from different tables or passages of the source.

Legend:
[1] = target: WRN (BV08), human Werner helicase (Uniprot Q14191, amino acids 517-1235 with L1074F point mutation) (Homo sapiens (Human), UniProt Q14191, L1074F); test: WRN (BV08) ADP-Glo assay; type: biochemical; conditions: class symbols A-E, read-out: ADP-Glo_hWRN_IC50
Procedure: Bovine skin gelatin (BSG), dimethyl sulfoxide (DMSO), Pluronic F-127 and tris(2-carboxyethyl)phosphine hydrochloride solution (TCEP) were purchased from Sigma-Aldrich (St. Louis, MO) at the highest level of purity possible. […] DNA strands were annealed by heating to 95° C. for 5 minutes followed by slow cooling to room temperature. Compounds in 100% DMSO (0.1 μl) were spotted into a 384-well white polystyrene Optiplate-384 (Perkin Elmer; Waltham, MA) assay plate using a LabCyte Echo 550 (Agilent; Santa Clara, CA). DMSO (0.1 μl) was added to columns 12, rows A-H and column 24, rows I-P for the maximum signal control. […] Compounds/DMSO were preincubated for 15 minutes at 25° C. with 5 μl 2×WRN (BV08), prepared as described below, in assay buffer containing 20 mM Bicine (pH=7.5), 1 mM MgCl2, 10 mM KCl, 0.1% Pluronic F-127, 0.005% BSG, 1 mM TCEP. The reaction was initiated by the addition of 5 μl 2× substrate mixture in assay buffer and incubated for 60 minutes at 25° C. The final concentrations of the assay components were 0.15 nM WRN, 5 μM ATP, and 0.1 nM DNA duplex. The final DMSO concentration was 1% and the reference compound concentration (NSC-617145) used for the minimal signal control was 20 μM. The reaction was stopped by the addition of the ADP-Glo Kit components (Promega; Madison, WI) as directed and the relative luminescence units (RLU) were read on an Envision 2104 (Perkin Elmer; Waltham, MA). % inhibition calculation:
[formula] • Where RLU=relative luminescence units, sample=signal in sample well, and MIN and MAX are the respective minimum and maximum signal controls.
[formula] • Where top and bottom are normally allowed to float but may be fixed at 100 or 0 respectively in a 3-parameter fit. Y is the % inhibition and X is the compound concentration.
Molecular Biology and virus production. […] The baculovirus from the expression plasmid WRN—BV08 was generated from transfection and amplification following the manufacturer's instructions.
Sf9 cells grown in SF900II media were infected with 1:200 WRN—BV08 P2 virus and incubated for protein expression for 72 h at 27° C. The WRN protein was purified using the following protocol. The cell pellets were thawed and resuspended in buffer A (50 mM Tris, pH 7.5, 500 mM NaCl, 1 mM TCEP, 10% Glycerol) supplemented with 0.5% CHAPS, 1 mM PMSF, 1 μg/ml Leupeptin, 1 μg/ml Pepstatin, and the Pierce Universal Nuclease and cocktail tablet. Cleared lysates were loaded onto a Ni Sepharose™ excel column and washed with buffer A and bound protein was eluted with buffer A supplemented with 300 mM imidazole. The eluted protein was dialyzed against buffer A and digested by His-tagged TEV (1:5 ratio) overnight at 4° C. ZnCl2 was added into the sample at final 15 μM before loading onto a second Ni Sepharose™ excel column. Untagged WRN protein was eluted from the column with buffer A supplemented with 20 mM imidazole, dialyzed overnight into buffer B (50 mM Tris, pH 7.5, 1 mM TCEP, 10% Glycerol) supplemented with 150 mM NaCl and loaded onto a Heparin column. Proteins were eluted with a step gradient of buffer B supplemented with 150 mM, 200 mM, 300 mM and 500 mM NaCl. WRN containing fractions were pooled and concentrated prior to loading on to size exclusion chromatography using a HiLoad 16/600 Superdex™ 200 pg column (GE Healthcare) in buffer C (20 mM HTEPES, pH 7.5, 250 mM NaCl, 0.25 mM TCEP, […]).

[2] = test system: p21 induction in HCT116 cells; test: p21 induction in HCT116 cells; type: cell-based; conditions: HCT116 cells, 24 h compound incubation, read-out: P21_EC50
Procedure: The colon carcinoma cell line HCT116 was obtained from ATCC and cultured in growth medium consisting of Mccoy's 5A Medium (Gibco 16600108) supplemented with 10% FBS (Transgene FS201-02) and 100 units/mL penicillin-streptomycin (Gibco 15140122) and maintained at 37° C. under 5% CO2. On the day of seeding, 2,000 cells in 30 μL of culture media were plated per well to Poly-D-Lysine 384 Well Black Clear Plates (Biocoat 356663) and incubated overnight at 37° C. under 5% CO2. The following day, compounds were serially diluted in DMSO for a total of 11 test concentrations. […] Next, 150 nL of diluted compound was added in duplicate to the assay plate, using an Echo 655 (Labcyte). The plate was centrifuged at 500 RPM for 1 min and then incubated at 37° C. under 5% CO2 for 24 h. After 24 h, medium was removed, and cells were fixed by adding 40 μL of 4% paraformaldehyde solution to each well and incubated for 20 min at room temperature. The plate was then washed 4 times with 100 μL per well of wash buffer (PBS with 0.1% Tween-20) using a microplate washer. Next, 30 μL of ice-cold methanol was added to each well and the plate was incubated at −20° C. for 10 min. The plate was washed 4 times with 100 μL per well of wash buffer by a microplate washer, then 30 μL per well of blocking buffer (Intercept PBS blocking buffer (LI-COR 927-70001) with 0.05% Tween-20) was added and the plate was incubated at room temperature with shaking for 2 h. Next, to each test well, 20 μL of primary antibody solution (p21 Waf1/CIP (12D1) RabbitmAb (Cell Signaling Technologies 2947) diluted 1:1000 and GAPDH (D4C6R) Mouse mAb (Cell Signaling Technologies 97166) diluted 1:2000 in blocking buffer) was added and the plate was placed at 4° C., overnight. The following day, the plate was washed 5 times with 100 μL per well of wash buffer using a microplate washer for 5 min. 20 μL per well of secondary antibody (IRDye 680CW Goat anti-Mouse IgG (H+L) (LI-COR 926-68070) diluted 1: 2000 in Blocking Buffer and IRDye 800CW Goat anti-Rabbit IgG (H+L) (LI-COR 926-32211) diluted 1: 2000 in Blocking Buffer) was then added and the plate was stored for 2 h in the dark at room temperature with shaking. The plate was then washed 4 times with 100 μL per well of wash buffer again using a microplate washer. Finally, the p21 signal and the GAPDH signal were quantified using a LI-COR Odyssey CLx Imager machine reading at 800 nm and 700 nm, respectively. Each plate contained DMSO control (low control) and an internal reference WRN inhibitor (high control) respectively. […] EC50 values for each compound were generated after non-linear regression curve fitting using commercially available software.

Chain of WRN (BV08), human Werner helicase (Uniprot Q14191, amino acids 517-1235 with L1074F point mutation) (Q14191 other isoform, or with tags, fused parts or gaps L1074F (already in the parent)): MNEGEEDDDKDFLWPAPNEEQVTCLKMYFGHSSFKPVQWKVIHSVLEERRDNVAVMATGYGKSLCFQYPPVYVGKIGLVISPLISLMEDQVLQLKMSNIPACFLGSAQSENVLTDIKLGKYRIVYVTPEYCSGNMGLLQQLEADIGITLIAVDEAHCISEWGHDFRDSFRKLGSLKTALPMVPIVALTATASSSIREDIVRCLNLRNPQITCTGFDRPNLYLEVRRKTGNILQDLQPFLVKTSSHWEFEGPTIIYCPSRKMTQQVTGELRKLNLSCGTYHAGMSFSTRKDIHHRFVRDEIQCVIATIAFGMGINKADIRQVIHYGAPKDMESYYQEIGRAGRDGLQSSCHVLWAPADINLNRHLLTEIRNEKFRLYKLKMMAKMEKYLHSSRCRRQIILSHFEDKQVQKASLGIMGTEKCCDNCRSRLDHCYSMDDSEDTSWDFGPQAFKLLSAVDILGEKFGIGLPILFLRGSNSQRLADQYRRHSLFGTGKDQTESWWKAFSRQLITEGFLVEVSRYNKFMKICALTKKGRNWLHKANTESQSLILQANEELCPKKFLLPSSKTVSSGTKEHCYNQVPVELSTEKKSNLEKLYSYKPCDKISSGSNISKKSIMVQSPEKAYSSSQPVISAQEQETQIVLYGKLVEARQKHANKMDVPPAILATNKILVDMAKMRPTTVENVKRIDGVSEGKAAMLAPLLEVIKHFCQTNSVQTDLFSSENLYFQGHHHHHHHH

Row | IC50 [1] | EC50 ([2]; Homo sapiens, HCT-116, 24 h) | EC50 [2] | Structure (SMILES)
1 | 5 to 50 nM | < 500 nM | – | CCc1c(N2CCN(C(=O)c3ncnc(C)c3O)[C@@H]3CC[C@H]32)c(=O)c2nc(N(C)C3CC3)cnc2n1CC(=O)Nc1ccc(C(F)(F)F)cc1Cl (single isomer, unassigned) [I-119, N-(2-chloro-4-(trifluoromethyl)phenyl)-2-(2-(cyclopropyl(methyl)amino)-6-ethyl-7-(5-(5-hydroxy-6-methylpyrimidine-4-carbonyl)-2,5-diazabicyclo[4.2.0]octan-2-yl)-8-oxopyrido[2,3-b]pyrazin-5(8H)-yl)acetamide]
2 | 5 to 50 nM | – | 500 to 2000 nM | CCc1c(N2CCN(C(=O)c3ncnc(C)c3O)[C@@H]3CC[C@H]32)c(=O)c2nc(N(C)C3CC3)cnc2n1CC(=O)Nc1ccc(C(F)(F)F)cc1Cl (single isomer, unassigned) [I-169, N-[2-chloro-4-(trifluoromethyl)phenyl]-2-{2-[cyclopropyl(methyl)amino]-6-ethyl-7-[-5-(5-hydroxy-6-methylpyrimidine-4-carbonyl)-2,5-diazabicyclo[4.2.0]octan-2-yl]-8-oxo-5H,8H-pyrido[2,3-b]pyrazin-5-yl}acetamide]
3 | 50 to 100 nM | – | > 5000 nM | CCc1c(N2CCN(C(=O)c3ncnc(C)c3O)[C@H]3CC[C@@H]32)c(=O)c2nc(NC)cnc2n1CC(=O)Nc1ccc(C(F)(F)F)cc1Cl (single isomer, unassigned) [I-171, N-(2-chloro-4-(trifluoromethyl)phenyl)-2-(6-ethyl-7-(5-(5-hydroxy-6-methylpyrimidine-4-carbonyl)-2,5-diazabicyclo[4.2.0]octan-2-yl)-2-(methylamino)-8-oxopyrido[2,3-b]pyrazin-5(8H)-yl)acetamide]
4 | ≤ 5 nM | < 500 nM | – | CCc1c(N2CCN(C(=O)c3ncnc(C)c3O)[C@@H]3CC[C@H]32)c(=O)c2nc(NC)cnc2n1CC(=O)Nc1ccc(C(F)(F)F)cc1Cl (single isomer, unassigned) [I-172, N-(2-chloro-4-(trifluoromethyl)phenyl)-2-(6-ethyl-7-(5-(5-hydroxy-6-methylpyrimidine-4-carbonyl)-2,5-diazabicyclo[4.2.0]octan-2-yl)-2-(methylamino)-8-oxopyrido[2,3-b]pyrazin-5(8H)-yl)acetamide]
5 | ≤ 5 nM | < 500 nM | – | CCc1c(N2CCN(C(=O)c3ncnc(C)c3O)C[C@@H]2C)c(=O)c2nc(N3CC[C@H]4C[C@H]43)cnc2n1CC(=O)Nc1ccc(C(F)(F)F)cc1Cl (single isomer, unassigned) [I-192]
6 | 5 to 50 nM | 500 to 2000 nM | – | CCc1c(N2CCN(C(=O)c3ncnc(C)c3O)[C@@H](C)[C@H]2C)c(=O)c2nc(N(C)C)cnc2n1CC(=O)Nc1ccc(C(F)(F)F)cc1Cl (single isomer, unassigned) [I-196, N-(2-chloro-4-(trifluoromethyl)phenyl)-2-(2-(dimethylamino)-6-ethyl-7-(4-(5-hydroxy-6-methylpyrimidine-4-carbonyl)-2,3-dimethylpiperazin-1-yl)-8-oxopyrido[2,3-b]pyrazin-5(8H)-yl)acetamide]
7 | 100 to 500 nM | > 5000 nM | – | CCc1c(N2CCN(C(=O)c3ncnc(C)c3O)[C@H]3CCC[C@H]32)c(=O)c2nc(N(C)C)cnc2n1CC(=O)Nc1ccc(C(F)(F)F)cc1Cl (single isomer, unassigned) [I-208, N-(2-chloro-4-(trifluoromethyl)phenyl)-2-(2-(dimethylamino)-6-ethyl-7-(4-(5-hydroxy-6-methylpyrimidine-4-carbonyl)octahydro-1H-cyclopenta[b]pyrazin-1-yl)-8-oxopyrido[2,3-b]pyrazin-5(8H)-yl)acetamide]
8 | 5 to 50 nM | < 500 nM | – | CCc1c(N2CCN(C(=O)c3ncnc(C)c3O)[C@@H]3CCC[C@@H]32)c(=O)c2nc(N(C)C)cnc2n1CC(=O)Nc1ccc(C(F)(F)F)cc1Cl (single isomer, unassigned) [I-209, N-(2-chloro-4-(trifluoromethyl)phenyl)-2-(2-(dimethylamino)-6-ethyl-7-(4-(5-hydroxy-6-methylpyrimidine-4-carbonyl)octahydro-1H-cyclopenta[b]pyrazin-1-yl)-8-oxopyrido[2,3-b]pyrazin-5(8H)-yl)acetamide]
9 | ≤ 5 nM | < 500 nM | – | CCc1c(N2CCN(C(=O)c3ncnc(C)c3O)[C@H]3CC[C@@H]32)c(=O)c2nc(N3CC[C@H]4C[C@H]43)cnc2n1CC(=O)Nc1ccc(C(F)(F)F)cc1Cl (single isomer, unassigned) [I-219]
10 | ≤ 5 nM | < 500 nM | – | CCc1c(N2CCN(C(=O)c3ncnc(C)c3O)[C@H]3CC[C@@H]32)c(=O)c2nc(N3CC[C@@H]4C[C@@H]43)cnc2n1CC(=O)Nc1ccc(C(F)(F)F)cc1Cl (single isomer, unassigned) [I-220]
11 | 5 to 50 nM | < 500 nM | – | CCc1c(N2CCN(C(=O)c3c(OC)ncc(C)c3O)C[C@@H]2C)c(=O)c2nc(N3CC[C@H]4C[C@H]43)cnc2n1CC(=O)Nc1ccc(C(F)(F)F)cc1Cl (single isomer, unassigned) [I-231]
12 | 5 to 50 nM | < 500 nM | – | CCc1c(N2CCN(C(=O)c3c(OC)ncc(C)c3O)C[C@@H]2C)c(=O)c2nc(N3CC[C@@H]4C[C@@H]43)cnc2n1CC(=O)Nc1ccc(C(F)(F)F)cc1Cl (single isomer, unassigned) [I-232]
